Results: patent US20090137678A1, “HIGH YIELD SYNTHESIS METHODS FOR PRODUCING ORGANIC SALTS OF STRONTIUM” (priority 2005, published 2009)

Assays:
[1] = Heating of strontium malonate sesquihydrate to remove bound crystal water; type: physicochemical
Method: The crystal water was irreversibly detached from the malonate at temperatures above approx. 70° C. Thus, anhydrous strontium malonate was produced in high yield and high purity by boiling a solution of strontium malonate.

[2] = system: new vertebral fracture; conditions: cited from earlier work

| Structure (SMILES) | temperature above which crystal water is irreversibly detached [1] [°C] | RR of new vertebral fracture vs placebo ([2]; 95% CI=0.48-0.73, P<0.001) | serum cross-linked C terminal telopeptides of type I collagen (CTX, marker of bone resorption) ([2]; clinical studies, serum) | bone formation marker BSAP ([2]; clinical studies) | patients who sustained a new vertebral fracture ([2]; strontium treated group, vs 222 in the placebo group, more than 7000 individuals) [patients] |
| --- | --- | --- | --- | --- | --- |
| O.O.O.O=C([O-])CC(=O)[O-].O=C([O-])CC(=O)[O-].[Sr+2].[Sr+2] [strontium malonate sesquihydrate] | > 70 | – | – | – | – |
| N#Cc1c(N(CC(=O)[O-])CC(=O)[O-])sc(C(=O)[O-])c1CC(=O)[O-].[Sr+2].[Sr+2] [strontium ranelate] | – | 0.59 | decreased | increased | 139 |
